Measurements: patent US4363805A, “Aminodesoxy-1.4;3.6-dianhydrohexitol nitrates and pharmaceutical composition” (Firma Willmar Schwabe, priority 1980, dated 1982)

Columns and labels:
[1] = Acute toxicity, intravenous, mice; format: in vivo; conditions: mouse, in vivo; intravenous, within 24 hours; read-out: Evaluated LD50-range
female NMRI-albino mice = experiment: Acute toxicity, intravenous, mice; format: in vivo; conditions: within 24 hours
mongrel cats = experiment: Inotropic and heart-circulatory effectiveness on narcotised cats, intravenous; format: in vivo, cat; conditions: 6 animals; for blood pressure before / dp/dt (inotropism) before / heart frequency before: before administration
narcotised guinea pigs = experiment: Blood pressure experiments on guinea pigs, i.v.; format: in vivo, guinea pig

## N[C@H]1CO[C@H]2[C@@H]1OC[C@@H]2O[N+](=O)[O-] [1 c]
[1]
  LD50 at 24 h: > 200 mg/kg
Female NMRI-albino mice; 200 mg/kg i.v.
  Frequency of death: 0/3

## CN(CCCCc1ccccc1)[C@H]1CO[C@H]2[C@@H]1OC[C@@H]2O[N+](=O)[O-] [Example 22, 5-[N-(4-Phenylbutyl)-N-methylamino]-5-desoxy-1.4;3.6-dianhydro-L-iditol 2-nitrate]
[1]
  LD50 at 24 h: ≥ 50 mg/kg
Female NMRI-albino mice; 50 mg/kg i.v.
  Frequency of death: 1/3
Female NMRI-albino mice; 100 mg/kg i.v.
  Frequency of death: 3/3
Female NMRI-albino mice; 200 mg/kg i.v.
  Frequency of death: 6/6

## O=[N+]([O-])O[C@H]1CO[C@H]2[C@@H]1OC[C@@H]2NCCCCCc1ccccc1 [Example 30, 5-(5-Phenylpentylamino)-5-desoxy-1.4;3.6-dianhydro-L-iditol 2-nitrate]
Mongrel cats; 0.25 mg/kg i.v.
  blood pressure before: 105.7 mm.Hg
  dp/dt (inotropism) before: 9600 mm.Hg/sec
  heart frequency before: 199.7 min⁻¹
  blood pressure WD: 9.2 min
  blood pressure after: 88.2 mm.Hg
  blood pressure Δ: -17.5 mm.Hg
  dp/dt (inotropism) after: 8340 mm.Hg/sec
  dp/dt (inotropism) Δ: -1260 mm.Hg/sec
  dp/dt WD: 10.2 min
  heart frequency after: 198.0 min⁻¹
  heart frequency Δ: -1.7 min⁻¹
Mongrel cats; 0.50 mg/kg i.v.
  blood pressure WD: 11.2 min
  blood pressure after: 81.8 mm.Hg
  blood pressure Δ: -25.0 mm.Hg
  dp/dt (inotropism) after: 7540 mm.Hg/sec
  dp/dt (inotropism) Δ: -1820 mm.Hg/sec
  dp/dt WD: 13.7 min
  heart frequency after: 200.3 min⁻¹
  heart frequency Δ: -0.7 min⁻¹
Mongrel cats; 1.00 mg/kg i.v.
  blood pressure WD: 22.2 min
  blood pressure after: 73.3 mm.Hg
  blood pressure Δ: -33.0 mm.Hg
  dp/dt (inotropism) after: 6160 mm.Hg/sec
  dp/dt (inotropism) Δ: -2180 mm.Hg/sec
  dp/dt WD: 23.6 min
  heart frequency after: 196.0 min⁻¹
  heart frequency Δ: -2.3 min⁻¹
Mongrel cats; 2.50 mg/kg i.v.
  blood pressure WD: > 10 min
  blood pressure after: 60.3 mm.Hg
  blood pressure Δ: -45.8 mm.Hg
  dp/dt (inotropism) after: 5840 mm.Hg/sec
  dp/dt (inotropism) Δ: -2060 mm.Hg/sec
  dp/dt WD: > 10 min
  heart frequency after: 188.3 min⁻¹
  heart frequency Δ: -2.0 min⁻¹

## COc1ccc(CCCCN[C@H]2CO[C@H]3[C@@H]2OC[C@@H]3O[N+](=O)[O-])cc1 [Example 32, 5-[4-(4-Methoxyphenyl)-butylamino]-5-desoxy-1.4;3.6-dianhydro-L-iditol 2-nitrate]
[1]
  LD50 at 24 h: 50 to 100 mg/kg
Female NMRI-albino mice; 50 mg/kg i.v.
  Frequency of death: 1/10
Female NMRI-albino mice; 100 mg/kg i.v.
  Frequency of death: 10/10

## O=[N+]([O-])O[C@H]1CO[C@H]2[C@@H]1OC[C@@H]2NCCCCOc1ccccc1 [Example 37, 5-(4-Phenoxybutylamino)-5-desoxy-1.4;3.6-dianhydro-L-iditol 2-nitrate]
[1]
  LD50 at 24 h: ≥ 50 mg/kg
Female NMRI-albino mice; 50 mg/kg i.v.
  Frequency of death: 3/10
Female NMRI-albino mice; 100 mg/kg i.v.
  Frequency of death: 10/10
Female NMRI-albino mice; 200 mg/kg i.v.
  Frequency of death: 3/3

## O=[N+]([O-])O[C@@H]1CO[C@H]2[C@@H]1OC[C@@H]2NCCCOc1ccccc1 [Example 42, 2-(3-Phenoxypropylamino)-2-desoxy-1.4;3.6-dianhydro-D-glucitol 5-nitrate]
[1]
  LD50 at 24 h: 50 to 100 mg/kg
Female NMRI-albino mice; 50 mg/kg i.v.
  Frequency of death: 0/3
Female NMRI-albino mice; 100 mg/kg i.v.
  Frequency of death: 2/3
Female NMRI-albino mice; 200 mg/kg i.v.
  Frequency of death: 6/6

## O=[N+]([O-])O[C@@H]1CO[C@H]2[C@@H]1OC[C@@H]2NCCCCc1ccccc1 [Example 43, 2-(4-phenylbutylamino)-2-desoxy-1.4;3.6-dianhydro-D-glucitol 5-nitrate]
[1]
  LD50 at 24 h: ≥ 50 mg/kg
Female NMRI-albino mice; 50 mg/kg i.v.
  Frequency of death: 1/3
Female NMRI-albino mice; 100 mg/kg i.v.
  Frequency of death: 3/3
Female NMRI-albino mice; 200 mg/kg i.v.
  Frequency of death: 6/6

## COc1ccc(OCC(O)CN[C@H]2CO[C@H]3[C@@H]2OC[C@@H]3O[N+](=O)[O-])cc1 (stereo partly drawn) [Example 44, 5-[2-Hydroxy-3-(4-methoxyphenoxy)-propylamino]-5-desoxy-1.4;3.6-dianhydro-L-iditol 2-nitrate]
[1]
  LD50 at 24 h: 100 to 200 mg/kg
Female NMRI-albino mice; 100 mg/kg i.v.
  Frequency of death: 0/3
Female NMRI-albino mice; 200 mg/kg i.v.
  Frequency of death: 2/3

## COc1ccccc1OCC(O)CN[C@H]1CO[C@H]2[C@@H]1OC[C@@H]2O[N+](=O)[O-] (stereo partly drawn) [Example 46, 5-[2-Hydroxy-3-(2-methoxyphenoxy)-propylamino]-5-desoxy-1.4;3.6-dianhydro-L-iditol 2-nitrate]
[1]
  LD50 at 24 h: 100 to 200 mg/kg
Female NMRI-albino mice; 100 mg/kg i.v.
  Frequency of death: 0/3
Female NMRI-albino mice; 200 mg/kg i.v.
  Frequency of death: 2/3

## CCOc1ccccc1OCC(O)CN[C@H]1CO[C@H]2[C@@H]1OC[C@@H]2O[N+](=O)[O-] (stereo partly drawn) [Example 47, 5-[2-Hydroxy-3-(2-ethoxyphenoxy)-propylamino]-5-desoxy-1.4;3.6-dianhydro-L-iditol 2-nitrate]
Narcotised guinea pigs; 0.25 mg/kg i.v.
  blood pressure after: 41.25 ± 2.78 mm.Hg
  blood pressure Δ: -5.75 mm.Hg
Narcotised guinea pigs; 0.25 mg/kg i.v., before administration
  blood pressure before: 47.00 ± 3.39 mm.Hg
Narcotised guinea pigs; 1.00 mg/kg i.v.
  blood pressure after: 33.75 ± 2.02 mm.Hg
  blood pressure Δ: -10.75 mm.Hg
Narcotised guinea pigs; 2.50 mg/kg i.v.
  blood pressure after: 25.75 ± 1.31 mm.Hg
  blood pressure Δ: -13.75 mm.Hg
Mongrel cats; 0.25 mg/kg i.v.
  blood pressure before: 125.7 mm.Hg
  dp/dt (inotropism) before: 8333 mm.Hg/sec
  heart frequency before: 187.3 min⁻¹
  blood pressure WD: 3.0 min
  blood pressure after: 121.7 mm.Hg
  blood pressure Δ: -4.0 mm.Hg
  dp/dt (inotropism) after: 7433 mm.Hg/sec
  dp/dt (inotropism) Δ: -900 mm.Hg/sec
  dp/dt WD: 3.7 min
  heart frequency after: 188.7 min⁻¹
  heart frequency Δ: +1.4 min^-1
Mongrel cats; 0.50 mg/kg i.v.
  blood pressure WD: 5.7 min
  blood pressure after: 114.2 mm.Hg
  blood pressure Δ: -11.3 mm.Hg
  dp/dt (inotropism) after: 7150 mm.Hg/sec
  dp/dt (inotropism) Δ: -1417 mm.Hg/sec
  dp/dt WD: 9.5 min
  heart frequency after: 196.0 min⁻¹
  heart frequency Δ: +0.3 min^-1
Mongrel cats; 1.00 mg/kg i.v.
  blood pressure WD: 8.2 min
  blood pressure after: 100.8 mm.Hg
  blood pressure Δ: -24.3 mm.Hg
  dp/dt (inotropism) after: 5067 mm.Hg/sec
  dp/dt (inotropism) Δ: -2983 mm.Hg/sec
  dp/dt WD: 10.9 min
  heart frequency after: 187.0 min⁻¹
  heart frequency Δ: -5.0 min⁻¹
Mongrel cats; 2.50 mg/kg i.v.
  blood pressure WD: > 9.0 min
  blood pressure after: 79.5 mm.Hg
  blood pressure Δ: -45.2 mm.Hg
  dp/dt (inotropism) after: 2933 mm.Hg/sec
  dp/dt (inotropism) Δ: -4500 mm.Hg/sec
  dp/dt WD: > 10 min
  heart frequency after: 171.7 min⁻¹
  heart frequency Δ: -20.3 min⁻¹

## O=[N+]([O-])O[C@H]1CO[C@H]2[C@@H]1OC[C@@H]2NCCCOc1cccc(C(F)(F)F)c1 [Example 58, 5-[3-(3-Trifluoromethylphenoxy)-propylamino]-5-desoxy-1.4;3.6-dianhydro-L-iditol 2-nitrate]
[1]
  LD50 at 24 h: ~100 mg/kg
Female NMRI-albino mice; 100 mg/kg i.v.
  Frequency of death: 7/12

## COc1cccc(OC)c1OCCCN[C@H]1CO[C@H]2[C@@H]1OC[C@@H]2O[N+](=O)[O-] [Example 65, 5-[3-(2,6-Dimethoxyphenoxy)-propylamino]-5-desoxy-1.4;3.6-dianhydro-L-iditol 2-nitrate]
[1]
  LD50 at 24 h: ~50 mg/kg
Female NMRI-albino mice; 50 mg/kg i.v.
  Frequency of death: 4/10
Female NMRI-albino mice; 100 mg/kg i.v.
  Frequency of death: 10/10
Female NMRI-albino mice; 200 mg/kg i.v.
  Frequency of death: 3/3

## COc1cc(OC)cc(OCCCN[C@H]2CO[C@H]3[C@@H]2OC[C@@H]3O[N+](=O)[O-])c1 [Example 66, 5-[3-(3,5-Dimethoxyphenoxy)-propylamino]-5-desoxy-1.4;3.6-dianhydro-L-iditol 2-nitrate]
[1]
  LD50 at 24 h: 100 to 200 mg/kg
Female NMRI-albino mice; 100 mg/kg i.v.
  Frequency of death: 2/10
Female NMRI-albino mice; 200 mg/kg i.v.
  Frequency of death: 3/3

## COc1cccc(OCCCN[C@H]2CO[C@H]3[C@@H]2OC[C@@H]3O[N+](=O)[O-])c1OC [Example 67, 5-[3-(2,3-Dimethoxyphenoxy)-propylamino]-5-desoxy-1.4;3.6-dianhydro-L-iditol 2-nitrate]
[1]
  LD50 at 24 h: ~70 mg/kg
Female NMRI-albino mice; 50 mg/kg i.v.
  Frequency of death: 0/10
Female NMRI-albino mice; 100 mg/kg i.v.
  Frequency of death: 3/3
Female NMRI-albino mice; 200 mg/kg i.v.
  Frequency of death: 3/3

## O=[N+]([O-])O[C@H]1CO[C@H]2[C@@H]1OC[C@@H]2NCCCOc1ccc(Cl)cc1 [Example 68, 5-[3-(4-Chlorophenoxy)-propylamino]-5-desoxy-1.4;3.6-dianhydro-L-iditol 2-nitrate]
[1]
  LD50 at 24 h: ~100 mg/kg
Female NMRI-albino mice; 100 mg/kg i.v.
  Frequency of death: 4/9

## O=[N+]([O-])O[C@H]1CO[C@H]2[C@@H]1OC[C@@H]2NCCCOc1ccccc1Cl [Example 69, 5-[3-(2-Chlorophenoxy)-propylamino]-5-desoxy-1.4;3.6-dianhydro-L-iditol 2-nitrate]
[1]
  LD50 at 24 h: 50 to 100 mg/kg
Female NMRI-albino mice; 50 mg/kg i.v.
  Frequency of death: 0/10
Female NMRI-albino mice; 100 mg/kg i.v.
  Frequency of death: 3/6

## O=[N+]([O-])O[C@H]1CO[C@H]2[C@@H]1OC[C@@H]2NCCCOc1ccc(Cl)cc1Cl [Example 72, 5-[3-(2,4-Dichlorophenoxy)-propylamino]-5-desoxy-1.4;3.6-dianhydro-L-iditol2-nitrate]
[1]
  LD50 at 24 h: > 100 mg/kg
Female NMRI-albino mice; 100 mg/kg i.v.
  Frequency of death: 0/6

## CC(=O)Nc1ccc(OCCCN[C@H]2CO[C@H]3[C@@H]2OC[C@@H]3O[N+](=O)[O-])cc1 [Example 73, 5-[3-(4-Acetamidophenoxy)-propylamino]-5-desoxy-1.4;3.6-dianhydro-L-iditol 2-nitrate]
[1]
  LD50 at 24 h: > 200 mg/kg
Female NMRI-albino mice; 100 mg/kg i.v.
  Frequency of death: 0/3
Female NMRI-albino mice; 200 mg/kg i.v.
  Frequency of death: 0/3
